In this assay the target is recombinant human SAE enzyme (Homo sapiens (Human), UniProt Q9UBT2). The experiment in a line: SAE HTRF enzyme assay. It is filed as biochemical. In short, it runs like this:
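Human SAE (0.11 nM) with 0.5 μM ATP, 0.125 μM Sumo-Flag and 0.01 μM Ubc9-GST in HEPES pH 7.5, 5 mM MgCl2, 250 μM GSH; 105 min at 24 °C. Stopped with EDTA; HTRF read after 2 h with Eu-anti-Flag and APC-anti-GST. Percent inhibition or IC50 reported.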
Background: Time-resolved FRET reads energy transfer from a long-lived donor to a nearby acceptor.

For orientation: IC50 means the midpoint of a concentration-inhibition curve.

recombinant human SAE enzyme, sequence (Q9UBT2 whole entry): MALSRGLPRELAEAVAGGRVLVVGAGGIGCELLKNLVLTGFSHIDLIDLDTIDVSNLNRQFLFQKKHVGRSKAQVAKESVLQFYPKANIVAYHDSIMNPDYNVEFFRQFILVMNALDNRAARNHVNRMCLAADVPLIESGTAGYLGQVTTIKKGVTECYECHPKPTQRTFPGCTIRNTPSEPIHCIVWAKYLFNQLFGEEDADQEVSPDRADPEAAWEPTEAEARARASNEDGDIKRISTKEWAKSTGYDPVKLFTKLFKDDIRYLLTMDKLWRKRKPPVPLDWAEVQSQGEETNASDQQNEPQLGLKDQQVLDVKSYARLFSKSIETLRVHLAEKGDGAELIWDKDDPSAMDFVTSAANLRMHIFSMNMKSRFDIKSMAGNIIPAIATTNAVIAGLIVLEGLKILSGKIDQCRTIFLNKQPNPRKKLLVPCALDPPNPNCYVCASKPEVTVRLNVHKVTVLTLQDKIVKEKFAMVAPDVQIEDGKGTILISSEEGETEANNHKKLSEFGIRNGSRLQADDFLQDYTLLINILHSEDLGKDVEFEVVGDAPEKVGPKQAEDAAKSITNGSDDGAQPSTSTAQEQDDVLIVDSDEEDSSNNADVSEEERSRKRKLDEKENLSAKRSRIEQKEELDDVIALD
recombinant human SAE enzyme, sequence (Q9UBE0 whole entry partner): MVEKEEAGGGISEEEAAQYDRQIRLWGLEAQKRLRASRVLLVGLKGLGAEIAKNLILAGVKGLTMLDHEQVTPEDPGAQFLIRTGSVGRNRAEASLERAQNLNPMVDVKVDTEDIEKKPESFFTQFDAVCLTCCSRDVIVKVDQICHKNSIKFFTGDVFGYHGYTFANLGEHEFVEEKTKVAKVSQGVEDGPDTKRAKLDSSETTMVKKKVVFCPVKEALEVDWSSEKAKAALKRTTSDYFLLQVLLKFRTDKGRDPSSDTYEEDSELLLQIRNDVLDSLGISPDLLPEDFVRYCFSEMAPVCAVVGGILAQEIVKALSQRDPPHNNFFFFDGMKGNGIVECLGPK

Consider `NS(=O)(=O)OC[C@H]1C[C@@H](Nc2ncncc2C(=O)c2cc([C@@H]3OCC(F)(F)c4ccccc43)cs2)C[C@@H]1O` (single isomer, unassigned) [I-293a, [(1R,2S,4R)-4-{[5-({4-[(1R)-4,4-difluoro-3,4-dihydro-1H-isochromen-1-yl]-2-thienyl}carbonyl)pyrimidin-4-yl]amino}-2-hydroxycyclopentyl]methyl sulfamate or [(1R,2S,4R)-4-{[5-({4-[(1S)-4,4-difluoro-3,4-dihydro-1H-isochromen-1-yl]-2-thienyl}carbonyl)pyrimidin-4-yl]amino}-2-hydroxycyclopentyl]methyl sulfamate], for which the “Percent Inhibition” value (SAE inhibition at compound concentration 0.111 μM) worked out at 57%. Moreover, the half-maximal inhibitory concentration (IC50) (SAE inhibition, class symbols, legend in nM) was in the range of 10 to 100 nM.

These data come from US10780090B2, “Heteroaryl compounds useful as inhibitors of SUMO activating enzyme” (Millennium Pharmaceuticals, Inc., priority 2014, dated 2020).
